Tests used:
Assay type in all cases: in vivo
Glycine max (GLXMA) = assay: greenhouse test, preemergence treatment, soybean; conditions: 100 = no emergence or complete destruction, 0 = no damage
From the text: (§1) It was possible to show the herbicidal action of the saccharin-5-carbonyl derivatives of the formula I by means of greenhouse tests: The cultivation containers used were plastic pots containing loamy sand with approximately 3.0% humus as a substrate. The seeds of the test plants were sown separately according to species. In the case of preemergence treatment, the active compounds suspended or emulsified in water were applied directly after sowing by means of finely dispersing nozzles. The containers were lightly watered in order to promote germination and growth, and then covered with transparent plastic hoods until the plants had taken root. This covering causes uniform germination of the test plants if this is not adversely affected by the active compounds. The application rate for preemergence treatment was 0.125 or 0.0625 kg/ha of a.s. The plants were kept species-specifically at temperatures of 10-25° C. or 20-35° C. The test period extended over 2 to 4 weeks. During this time, the plants were tended, and their reaction to the individual treatments was assessed. Assessment was carried out on a scale from 0 to 100. In this case, 100 means no emergence of the plants or complete destruction at least of the above-ground parts and 0 means no damage or a normal course of growth. The plants used in the greenhouse tests were made up of the following species: [table]

[1] = system: Chenopodium album (CHEAL); assay: greenhouse test, preemergence treatment, lambsquarter; conditions: 100 = no emergence or complete destruction, 0 = no damage
From the text: as §1

[2] = system: digitaria sanguinalis (DIGSA); assay: greenhouse test, preemergence treatment, large crabgrass; conditions: 100 = no emergence or complete destruction, 0 = no damage
From the text: as §1

[3] = system: Echinochloa crus galli (ECHCG); assay: greenhouse test, preemergence treatment, common barnyard grass; conditions: 100 = no emergence or complete destruction, 0 = no damage
From the text: as §1

Setaria viridis (SETVI) = assay: greenhouse test, preemergence treatment, green foxtail; conditions: 100 = no emergence or complete destruction, 0 = no damage
From the text: as §1

[4] = system: weed grasses and broad-leaved plants; assay: greenhouse test, preemergence treatment, overall statement; conditions: 0.125 and 0.0625 kg/ha a.s.
From the text: as §1, with “[table]” left out

Cc1c(C(=O)C2=C(O)C3CCC(C3)C2=O)ccc2c1C(=O)N(C)S2(=O)=O (centres unmarked) [Compound 1.1]
damage assessment on a scale from 0 to 100 (GLXMA) (Glycine max (GLXMA); 0.0625 kg/ha of a.s.): 0
damage assessment on a scale from 0 to 100 (GLXMA) (Glycine max (GLXMA); 0.125 kg/ha of a.s.): 0
damage assessment on a scale from 0 to 100 (CHEAL) ([1]; 0.0625 kg/ha of a.s.): 98
damage assessment on a scale from 0 to 100 (CHEAL) ([1]; 0.125 kg/ha of a.s.): 98
damage assessment on a scale from 0 to 100 (DIGSA) ([2]; 0.0625 kg/ha of a.s.): 98
damage assessment on a scale from 0 to 100 (DIGSA) ([2]; 0.125 kg/ha of a.s.): 98
damage assessment on a scale from 0 to 100 (ECHCG) ([3]; 0.0625 kg/ha of a.s.): 98
damage assessment on a scale from 0 to 100 (ECHCG) ([3]; 0.125 kg/ha of a.s.): 98
damage assessment on a scale from 0 to 100 (SETVI) (Setaria viridis (SETVI); 0.0625 kg/ha of a.s.): 98
damage assessment on a scale from 0 to 100 (SETVI) (Setaria viridis (SETVI); 0.125 kg/ha of a.s.): 100
control of weed grasses and broad-leaved plants [4]: very well controlled
